Test results from patent US20100120848A1, “STABLE PHARMACEUTICAL FORMULATIONS OF MONTELUKAST SODIUM” (Teva Pharmaceutical Industries Ltd., priority 2006, published 2010).

Experiment: Excipient compatibility: montelukast sodium/excipient mixtures stored at 55° C. for 48 hours, sulfoxide of formula (I) by HPLC
Type: physicochemical
Conditions: for % Sulfoxide of Formula (I), 0 hours: by weight relative to montelukast sodium, before storage
Protocol: Comparative testing with montelukast sodium was performed to determine the conditions which cause the degradation of montelukast sodium into the corresponding sulfoxide. Compositions of montelukast sodium and each of the excipients of the prior art tablets were prepared and subjected to stressed storage conditions. The amount of the corresponding sulfoxide present in each of the compositions was measured by high performance liquid chromatography (“HPLC”) both before and after storage.
Sample mixtures of montelukast sodium and each of the individual excipients were prepared. Each sample was stored at 55° C. for 48 hours. The percentage by weight of sulfoxide of formula (I) relative to montelukast sodium in each sample was measured at 0 hours and at 48 hours by HPLC. HPLC was performed on a Beta-Basic C18 analytical column (150×4.6 mm I.D.), packed with 5 μm diameter particles (Thermo Election Corporation). The mobile phase was a mixture of acetonitrile and 20 mM KH2PO4 (60:40) and its flow-rate was 1.5 mL/min. The UV detector was set at 225 nm or 281 nm and the column temperature was 40° C.

| % Sulfoxide of Formula (I), 0 hours [%] | increase of the amount of the corresponding sulfoxide in the composition over the storage period (in the presence of microcrystalline cellulose, stressed storage conditions) | Compound |
| --- | --- | --- |
| 0.63 | – | CC(C)(O)c1ccccc1CC[C@@H](SCC1(CC(=O)[O-])CC1)c1cccc(/C=C/c2ccc3ccc(Cl)cc3n2)c1.[Na+] [Sample 1, Montelukast sodium] |
| 0.26 | – | CC(C)(O)c1ccccc1CC[C@@H](SCC1(CC(=O)[O-])CC1)c1cccc(/C=C/c2ccc3ccc(Cl)cc3n2)c1.[Na+] [Sample 7, Montelukast sodium] |
| – | over 250% | CC(C)(O)c1ccccc1CC[C@@H](SCC1(CC(=O)[O-])CC1)c1cccc(/C=C/c2ccc3ccc(Cl)cc3n2)c1.[Na+] [montelukast sodium, [R-(E)]-1-[[[1-[3-[2-(7-chloro-2-quinolinyl)ethenyl]phenyl]-3-[2-(1-hydroxy-1-methylethyl)phenyl]propyl]thio]methyl]cyclopropaneacetic acid, monosodium salt] |
